Values joined by “and” are separate entries in the source; they are usually repeats but may differ in a detail not shown here. Identical values can stand only once. Like-named read-outs stand apart in the source and are kept apart here.
How the values were obtained:
PDE6D mRNA = assay: RT-qPCR of PDE6D mRNA in Jurkat cells; type: cell-based; settings: for PDE6D mRNA level (relative to DMSO control group): 6 h, Supplementary Fig. 1f
Experimental: Jurkat cells were grown in 12-well plates and treated with compounds for the indicated time. RNA was extracted using the RNeasy Plus Mini Kit (QIAGEN, 74134), and DNA was removed by DNase digestion with RNase-free DNase Set (QIAGEN, 79256). cDNA was synthesized using the QuantiTect Reverse Transcription Kit (QIAGEN, 205313). The mRNA expression level was evaluated with the QuantiFast SYBR Green PCR Kit (Qiagen, 330502), using the CFX96 Real-Time PCR Detection System (BIO-RAD Laboratories), and relative expression levels were calculated using the ΔΔCt method using GAPDH as reference[45] and analyzed in GraphPad Prism 9.0. The sequences of the primers for PDE6D were 5’-[…]-3’ (forward) and 5’-[…]-3’ (reverse). For GAPDH, the sequences were 5’-[…]-3’ (forward) and 5’-[…]-3’ (reverse). For BRD2, the sequences were 5’-[…]-3’ (forward), 5’-[…]-3’ (reverse). For BRD3, the sequences were 5’-[…]-3’ (forward), 5’-[…]-3’ (reverse). For BRD4, the sequences were 5’-[…]-3’ (forward), 5’-[…]-3’ (reverse). These primers were synthesized by Sigma-Aldrich.

LC3B = LC3B (Homo sapiens, UniProt Q9GZQ8); assay: Thermal shift assay with LC3B; type: binding; settings: 15 µM LC3B; 60 µM compound; Glo-Melt dye
Experimental: For thermal shift analysis, 15 µM of human LC3B was dispensed into 384-well plates (Hard-Shell 384-well 480 PCR plates, BioRAD #HSR4805) in buffer (50 mM Tris/HCl pH 7.4, 100 mM NaCl, 1 mM GSH and 0.02% CHAPS) with a Certus Flex liquid dispenser (Gyger). 60 µM compounds in DMSO (n4 or DMSO (0.6%) as control were added with an Echo 520 acoustic liquid handler (Labcyte). Glo-Melt dye was added (final concentration: 1/100), plates sealed with Lightcycler 480 Sealing Foils (Roche, #04 729 757 001) and mixed by short centrifugation (1 min, 60 g and room temeprature). A Lightcycler 480 II (Roche) was used for thermal shift curves with a temperature gradient from 20 to 95 °C according to the manufacturer´s protocol. Protein melting curves were analyzed, and the difference in meting temperature (ΔTm) was calculated with LightCycler Thermal Shift Analysis software (ROCHE) and visualized by Graphpad Prism (Version 9.5.1).

PDEδ [1] = target: T1, PDEδ (Homo sapiens, UniProt O43924); assay: PDEδ levels by Western blot in Jurkat cells; type: cell-based; design: endogenous in cells; host or cells: Jurkat; settings: for remaining activity at 10 µM: Jurkat, 6 h, DMSO pretreatment 2 h, then 10 μM, 6h, read-out: PDEδ/Vinculin intensity (relative to DMSO control group)
T1 sequence (O43924 whole entry): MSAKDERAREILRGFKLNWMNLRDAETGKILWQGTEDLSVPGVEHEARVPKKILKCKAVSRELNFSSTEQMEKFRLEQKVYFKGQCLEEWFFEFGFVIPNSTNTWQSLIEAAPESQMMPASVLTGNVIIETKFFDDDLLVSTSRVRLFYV

PDEδ [2] = target: T1, PDEδ; assay: PDEδ levels by Western blot in Dox-inducible DDB1 knockout KBM7 cells; type: cell-based; design: endogenous in cells; host or cells: Dox-inducible DDB1-knockout KBM7; settings: 5 (10 μM) 8 h, Supplementary Fig. 4f
Experimental: (§1) Cells were washed with PBS and lysed in lysis buffer (50 mM Tris-HCl, pH 7.4, 150 mM NaCl, 1% Triton X-100, 1% sodium deoxycholate, 0.1% SDS) with complete protease inhibitor cocktail (Roche, 11836170001) for 30 min on ice. For Ramos cells, cell pellets were lysed in lysis buffer (50 mM Tris-HCl, pH 8, 150 mM NaCl, 1% NP-40, 0.5% sodium deoxycholate) with complete protease inhibitor cocktail. After centrifugation at 16,000 x g, the supernatant was transferred into a new tube and the protein concentration was determined by DC protein assay (BIO-RAD, 5000116). Proteins were separated by SDS-PAGE and transferred to a PVDF membrane (Thermo scientific, 0.45 μm, 88518). For PDEδ, BRD2, GAPDH, BRD4, Vinculin and BTK, the membranes were blocked with Intercept® Blocking Buffer (LI-COR Biosciences, 927-70001) at room temperature for 1 h. The primary antibodies for these proteins were diluted with Intercept® Blocking Buffer (1:500 for PDEδ, 1:3000 for Vinculin, and 1:1000 for other proteins) and incubated with the membranes overnight at 4 °C. Membranes were washed with PBS + 0.1% Tween 20 (PBS-T) five times and incubated with secondary antibodies conjugated to IRDye® Infrared Fluorescent Dyes (1:5000, LI-COR Biosciences) at room temperature for 1 h with protection from light. […] Relative band intensities were quantified using Image Lab (BIO-RAD).

PDEδ [3] = target: T1, PDEδ; assay: PDEδ levels by Western blot in HEK293T, HAP1 and LC3B knockout HAP1 cells; type: cell-based; design: endogenous in cells; host or cells: HEK293T; HAP1 and LC3B-knockout HAP1
Experimental: as §1

BLK = target: T2, BLK (Homo sapiens, UniProt P51451); assay: BLK levels by Western blot in Ramos cells; type: cell-based
T2 construct: endogenous in cells; host or cells: Ramos
T2 sequence (P51451 whole entry): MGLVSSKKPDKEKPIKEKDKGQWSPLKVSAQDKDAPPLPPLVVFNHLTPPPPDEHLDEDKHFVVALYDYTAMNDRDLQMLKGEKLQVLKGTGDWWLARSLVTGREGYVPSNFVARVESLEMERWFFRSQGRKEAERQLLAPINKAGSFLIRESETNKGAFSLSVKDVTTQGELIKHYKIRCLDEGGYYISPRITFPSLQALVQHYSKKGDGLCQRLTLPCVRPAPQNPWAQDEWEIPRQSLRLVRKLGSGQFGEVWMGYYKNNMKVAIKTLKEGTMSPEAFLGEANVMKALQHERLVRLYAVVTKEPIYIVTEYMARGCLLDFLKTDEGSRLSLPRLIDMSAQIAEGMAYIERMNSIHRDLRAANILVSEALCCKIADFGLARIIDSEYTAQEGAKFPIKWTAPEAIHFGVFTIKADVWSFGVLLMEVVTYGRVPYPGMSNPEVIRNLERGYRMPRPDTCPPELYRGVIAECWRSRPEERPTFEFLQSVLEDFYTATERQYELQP
Experimental: Cells were washed with PBS and lysed in lysis buffer (50 mM Tris-HCl, pH 7.4, 150 mM NaCl, 1% Triton X-100, 1% sodium deoxycholate, 0.1% SDS) with complete protease inhibitor cocktail (Roche, 11836170001) for 30 min on ice. For Ramos cells, cell pellets were lysed in lysis buffer (50 mM Tris-HCl, pH 8, 150 mM NaCl, 1% NP-40, 0.5% sodium deoxycholate) with complete protease inhibitor cocktail. After centrifugation at 16,000 x g, the supernatant was transferred into a new tube and the protein concentration was determined by DC protein assay (BIO-RAD, 5000116). Proteins were separated by SDS-PAGE and transferred to a PVDF membrane (Thermo scientific, 0.45 μm, 88518). For PDEδ, BRD2, GAPDH, BRD4, Vinculin and BTK, the membranes were blocked with Intercept® Blocking Buffer (LI-COR Biosciences, 927-70001) at room temperature for 1 h. The primary antibodies for these proteins were diluted with Intercept® Blocking Buffer (1:500 for PDEδ, 1:3000 for Vinculin, and 1:1000 for other proteins) and incubated with the membranes overnight at 4 °C. Membranes were washed with PBS + 0.1% Tween 20 (PBS-T) five times and incubated with secondary antibodies conjugated to IRDye® Infrared Fluorescent Dyes (1:5000, LI-COR Biosciences) at room temperature for 1 h with protection from light. After washing the membrane, signals were visualized using the ChemiDoc MP Imaging System (BIO-RAD Laboratories). For detection of LC3B, BRD3, BLK, DCAF11, DDB1 RBX1, FIP200, V5- and FLAG-Tag the membranes were blocked with 5% milk in PBS-T at room temperature for 1 h. The primary antibodies for these proteins were diluted in 5% milk in PBS-T buffer (1:200 for BRD3, 1:1000 for other proteins) and incubated with the membranes overnight at 4 °C. Membranes were washed with PBS-T five times and incubated with HRP secondary antibodies (1:1500) at room temperature for 1 h. After washing the membrane, protein detection was performed using Western blotting detection reagent (Thermo Scientific, 34095) and the ChemiDoc MP Imaging System (BIO-RAD). Relative band intensities were quantified using Image Lab (BIO-RAD).

BTK = target: T3, BTK (Homo sapiens, UniProt Q06187); assay: BTK levels by Western blot in Ramos cells; type: cell-based; settings: 6 h
T3 construct: endogenous in cells; host or cells: Ramos
T3 sequence (Q06187 whole entry): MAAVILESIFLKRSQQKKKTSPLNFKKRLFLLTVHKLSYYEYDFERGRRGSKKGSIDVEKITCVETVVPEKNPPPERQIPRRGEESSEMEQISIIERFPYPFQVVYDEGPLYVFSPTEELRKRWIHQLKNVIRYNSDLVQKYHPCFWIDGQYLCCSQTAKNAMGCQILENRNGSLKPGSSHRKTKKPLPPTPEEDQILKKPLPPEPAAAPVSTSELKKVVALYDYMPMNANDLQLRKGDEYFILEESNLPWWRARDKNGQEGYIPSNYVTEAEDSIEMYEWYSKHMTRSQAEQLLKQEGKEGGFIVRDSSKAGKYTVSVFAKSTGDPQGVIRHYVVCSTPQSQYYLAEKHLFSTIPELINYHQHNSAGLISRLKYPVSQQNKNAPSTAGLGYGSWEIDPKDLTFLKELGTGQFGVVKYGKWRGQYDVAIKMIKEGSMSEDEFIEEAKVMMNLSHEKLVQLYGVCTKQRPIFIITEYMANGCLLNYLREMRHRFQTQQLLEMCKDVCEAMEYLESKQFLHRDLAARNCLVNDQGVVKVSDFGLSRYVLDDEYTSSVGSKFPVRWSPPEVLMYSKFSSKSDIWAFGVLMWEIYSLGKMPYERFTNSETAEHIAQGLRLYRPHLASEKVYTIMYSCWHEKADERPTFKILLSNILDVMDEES
Experimental: as §1

| SMILES | PDE6D mRNA level (relative to DMSO control group) (PDE6D mRNA; 3 μM) | PDE6D mRNA level (relative to DMSO control group) (PDE6D mRNA; 10 μM) | PDEδ mRNA levels (in words) (PDE6D mRNA; 6 h treatment) | change of melting temperature of LC3B (ΔTm) (LC3B) | PDEδ degradation (PDEδ [1]; 10 µM, 18 h incubation) | remaining activity at 10 µM (PDEδ [1]; Fig. 1g) [%] | remaining activity at 10 µM (PDEδ [1]; Fig. 1d) [%] | hook effect in PDEδ degradation (PDEδ [1]; up to 10 µM concentration) | PDEδ protein level (relative to DMSO control group) (PDEδ [2]; Dox-inducible DDB1 knockout KBM7 cells pretreated with 0.5 ug/mL Dox for 3 days) | PDEδ protein level (relative to DMSO control group) (PDEδ [2]; Dox-inducible DDB1 knockout KBM7 cells, no Dox (DMSO)) | PDEδ degradation in HEK293T and HAP1 cell lines (PDEδ [3]; 5 μM or 10 μM) | PDEδ degradation in LC3B knockout HAP1 cells (PDEδ [3]; LC3B knockout HAP1 cells) | BLK/Vinculin intensity (relative to DMSO control group) (BLK; 3 μM, 6 h, Fig. 2g) | BLK/Vinculin intensity (relative to DMSO control group) (BLK; 10 μM, 6 h, Fig. 2g) | BLK/Vinculin intensity (relative to DMSO control group) (BLK; 30 μM, 6 h, Fig. 2g) | reduction of BLK levels (BLK; Ramos cells, 6 h) [%] | BLK/Vinculin intensity (relative to DMSO control group) (BLK; Ramos cells, pretreated CFZ 1 μM 40 min, then 10 μM, 6h, Fig. 2h) | BLK/Vinculin intensity (relative to DMSO control group) (BLK; Ramos cells, pretreated CQ 50 μM 40 min, then 10 μM, 6h, Fig. 2h) | BLK/Vinculin intensity (relative to DMSO control group) (BLK; Ramos cells, pretreated MLN4924 1 μM 40 min, then 10 μM, 6h, Fig. 2h) | reduction of BTK levels (BTK) [%] |
| --- | --- | --- | --- | --- | --- | --- | --- | --- | --- | --- | --- | --- | --- | --- | --- | --- | --- | --- | --- | --- |
| Cc1ccc(-n2nc3c(=O)n(CCCC(=O)NCCc4ccc(C(=O)NCCOCCOCCOCCOc5c(Br)cc(/C=C6\C(=O)Nc7ccc(Br)cc76)cc5Br)cc4)nc(C)c3c2C)cc1 [Compound 5] | 141.721 and 114.564 and 90.7441 | 145.389 and 133.515 and 106.183 | no reduction in mRNA levels | did not change the thermal stability | ca. 75% | 43.9 | 44.2 | no hook effect | abolished | 44.238 and 44.9587 and 52.5197 and 56.1328 | degraded | induced PDEδ degradation | – | – | – | – | – | – | – | – |
| Nc1ncnc2c1c(-c1ccc(Oc3ccccc3)cc1)nn2C1CCN(CC(=O)NCCOCCOCCOCCOCCNC(=O)COc2c(Br)cc(/C=C3\C(=O)Nc4ccc(Br)cc43)cc2Br)CC1 [Compound 13] | – | – | – | – | – | – | – | – | – | – | – | – | 37.145 and 35.6045 and 46.4487 | 21.4399 and 23.7367 and 36.6727 | 37.0963 and 39.3424 and 67.6199 | 70 | 73.6122 and 85.1867 and 106.763 | 24.1946 and 36.2698 and 40.4347 | 110.614 and 82.1333 and 144.155 | 50 |
